Experimental findings from patent US20220304985A1, “COMBINATION THERAPY FOR PROLIFERATIVE CONDITIONS” (Avexxin AS, priority 2019, published 2022) are described below.

The test system of assay [1] is MDA-MB-436 cells. As to the kind of experiment: Resazurin viability assay, MDA-MB-436 cells (monotherapy and combination). It is filed as cell-based, human. The following applies: for IC50: MDA-MB-436, 72 h treatment, n = 3. The source says: The MDA-MB-436 cell line was from ATCC. The MDA-MB-436 cell line was established from a pleural effusion of a patient with metastatic breast adenocarcinoma. The cell line is of triple negative breast cancer, however the MDA-MB-436 cell line is classified as mesenchymal stem-like with high enrichment of genes for biological processes such as cell motility (Rho pathway), cellular differentiation and growth pathways (ALK pathway, TGF-β signalling and Wnt/β-catenin pathway). MDA-MB-436 cells were maintained in RPMI-1640 culturing media supplemented with 10% FBS, 0.3 mg/mL L-glutamine and 0.1 mg/mL gentamicin, 10 mcg/mL insulin and incubated in 37° C. humidified atmosphere. Sub-culture using trypsin-EDTA 0.5% every 3-4 days with cell density of 2-3 million cells in a T75 cm2 culturing flask to ensure actively proliferating cells. The MDA-MB-436 cells was seeded in 1×10^4 cells/well. After 24 h of cultivation, when the cells were ˜30-50% confluent, the medium was replaced with serum free growth medium without gentamycin to ensure synchronization of the cells and to increase cell sensitivity to treatment. The MDA-MB-436 cells were starved in starvation media with insulin. The medium was replaced with fresh serum free medium with or without compound 2, NVP-BKM120 (Cayman Chemicals, US). The cells were observed under the microscope to evaluate possible morphology changes and signs of stress before the addition of resazurin according to the manufacturer's instructions (RnD Systems, UK). MDA-MB-436 cells were incubated for 72 h. Resazurin was metabolized for 1-2 h (37° C., 5% CO2) before fluorescence was read at 544 nm excitation and 590 nm emission wavelength (BioTek Synergy HT). The experiments were performed in series of eight wells per treatment and repeated 2-3 times. […] Statistical significance between treatments were determined using Welch's ANOVA with Tamhane's T2 correction for multiple comparisons, p<0.05 was considered statistically significant.

Assay [2] has as its system CCRF-CEM cells. As to the kind of experiment: Resazurin viability assay, CCRF-CEM cells (combination, Bliss Independence CI). It counts as cell-based, human. The settings on record: 0.5 μm of BKM120 as used in combination, FIG. 1, CCRF-CEM. The method, then: The CCRF-CEM (ATCC CCL-119) cell line is derived from T lymphoblasts from peripheral blood of a child with acute leukaemia. The cells were grown according to the recommendations of the supplier. The culture medium, RPMI-1640, was supplemented with 10 μL/mL glutamine, 2 μL/mL gentamicin and 10% foetal bovine serum (FBS) to make complete growth medium (CGM). The cells were incubated at 37 °C in a humidified atmosphere with 5% CO2. Passaging was conducted every 2 - 4 days to maintain a cell density below 2.5×10^6 cells/mL, and thus ensure a continuous proliferation. Cells were allowed to acclimatise for two weeks after establishment before they were utilised for experimental purposes and discarded after three months. […] Resazurin was metabolized for 1-2 h (37° C., 5% CO2) before fluorescence was read at 544 nm excitation and 590 nm emission wavelength (BioTek Synergy HT). […] Statistical significance between treatments were determined using Welch's ANOVA with Tamhane's T2 correction for multiple comparisons, p<0.05 was considered statistically significant. […] The combination index was calculated using: [formula] • where CI is the combination index, EA represent the effect of drug A given as a monotherapy, EB represent the effect of drug B given as a monotherapy and EAB represent drugs A and B given in combination at the same concentrations as the monotherapies. […]
In general terms: The colour change of resazurin is a common sign of viable cells or microbes.

As to `Nc1cc(C(F)(F)F)c(-c2cc(N3CCOCC3)nc(N3CCOCC3)n2)cn1` [BKM120, buparlisib, reference compound], the viability at 0.4 µM in assay [1] (Homo sapiens, 72 h, BKM120 0.4 μM alone, MDA-MB-436, relative to untreated control set to 100%) is 84 ± 7%. The viability at 1.1 µM in assay [1] (Homo sapiens, 72 h, BKM120 1.1 μM alone, MDA-MB-436, relative to untreated control set to 100%) came out at 45 ± 10%. Further, the IC50 in assay [1] (Homo sapiens) is 1.2 µM. Also, the expected inhibition in assay [2] was 10%.

For `CCCCCCCOc1ccc(OCC(=O)c2nc(C(=O)OC)cs2)cc1` [Compound 2], the viability at 5 µM in assay [1] (Homo sapiens, 72 h, Cmpd 2 5 μM alone, MDA-MB-436, relative to untreated control set to 100%) was determined as 92 ± 3%. In addition, the viability at 6.5 µM in assay [1] (Homo sapiens, 72 h, Cmpd 2 6.5 μM alone, MDA-MB-436, relative to untreated control set to 100%) is 82 ± 6%. Moreover, the viability at 7.5 µM in assay [1] (Homo sapiens, 72 h, Cmpd 2 7.5 μM alone, MDA-MB-436, relative to untreated control set to 100%) was found to be 76 ± 4%. Also, the viability at 10 µM in assay [1] (Homo sapiens, 72 h, Cmpd 2 10 μM alone, MDA-MB-436, relative to untreated control set to 100%) worked out at 60 ± 10%. The IC50 in assay [1] (Homo sapiens) came to 10.4 µM. Besides, the “concentration at which viability was reduced significantly compared to the untreated control” value in assay [1] (MDA-MB-436, 72 h, control set to 100% viability) was no less than 9 µM.

By viability is commonly meant a read-out of living cells in per cent, often relative to untreated cells. As usually defined, the IC50 is the concentration at which inhibition is half-maximal.
